A short description of the test: Inhibition of calcium channel in pig carotid artery assessed as relaxation of KCl-induced vascular smooth muscle contraction.

One may read the IC50 as the concentration at which inhibition is half-maximal. For `COC(=O)C1=C(C)NC(C)=C(C(=O)OC)C1c1ccccc1[N+](=O)[O-]` [NIFEDIPINE], the IC50 came to 10 nM.

For the origin of these results see ChEMBL document CHEMBL2040829, “Highly regioselective synthesis of N-3 organophosphorous derivatives of 3,4-dihydropyrimidin-2(1H)-ones and their calcium channel binding studies” (Eur J Med Chem, 2012).
